# Measured values: patent US4743687A, “Pyridazo (1,2-a) (1,2) diazepine derivatives” (Hoffmann-La Roche Inc., priority 1985, dated 1988)
# Molecular target: T1, angiotensin converting enzyme (Oryctolagus cuniculus, UniProt P12822)
# T1 sequence (P12822 34-1310): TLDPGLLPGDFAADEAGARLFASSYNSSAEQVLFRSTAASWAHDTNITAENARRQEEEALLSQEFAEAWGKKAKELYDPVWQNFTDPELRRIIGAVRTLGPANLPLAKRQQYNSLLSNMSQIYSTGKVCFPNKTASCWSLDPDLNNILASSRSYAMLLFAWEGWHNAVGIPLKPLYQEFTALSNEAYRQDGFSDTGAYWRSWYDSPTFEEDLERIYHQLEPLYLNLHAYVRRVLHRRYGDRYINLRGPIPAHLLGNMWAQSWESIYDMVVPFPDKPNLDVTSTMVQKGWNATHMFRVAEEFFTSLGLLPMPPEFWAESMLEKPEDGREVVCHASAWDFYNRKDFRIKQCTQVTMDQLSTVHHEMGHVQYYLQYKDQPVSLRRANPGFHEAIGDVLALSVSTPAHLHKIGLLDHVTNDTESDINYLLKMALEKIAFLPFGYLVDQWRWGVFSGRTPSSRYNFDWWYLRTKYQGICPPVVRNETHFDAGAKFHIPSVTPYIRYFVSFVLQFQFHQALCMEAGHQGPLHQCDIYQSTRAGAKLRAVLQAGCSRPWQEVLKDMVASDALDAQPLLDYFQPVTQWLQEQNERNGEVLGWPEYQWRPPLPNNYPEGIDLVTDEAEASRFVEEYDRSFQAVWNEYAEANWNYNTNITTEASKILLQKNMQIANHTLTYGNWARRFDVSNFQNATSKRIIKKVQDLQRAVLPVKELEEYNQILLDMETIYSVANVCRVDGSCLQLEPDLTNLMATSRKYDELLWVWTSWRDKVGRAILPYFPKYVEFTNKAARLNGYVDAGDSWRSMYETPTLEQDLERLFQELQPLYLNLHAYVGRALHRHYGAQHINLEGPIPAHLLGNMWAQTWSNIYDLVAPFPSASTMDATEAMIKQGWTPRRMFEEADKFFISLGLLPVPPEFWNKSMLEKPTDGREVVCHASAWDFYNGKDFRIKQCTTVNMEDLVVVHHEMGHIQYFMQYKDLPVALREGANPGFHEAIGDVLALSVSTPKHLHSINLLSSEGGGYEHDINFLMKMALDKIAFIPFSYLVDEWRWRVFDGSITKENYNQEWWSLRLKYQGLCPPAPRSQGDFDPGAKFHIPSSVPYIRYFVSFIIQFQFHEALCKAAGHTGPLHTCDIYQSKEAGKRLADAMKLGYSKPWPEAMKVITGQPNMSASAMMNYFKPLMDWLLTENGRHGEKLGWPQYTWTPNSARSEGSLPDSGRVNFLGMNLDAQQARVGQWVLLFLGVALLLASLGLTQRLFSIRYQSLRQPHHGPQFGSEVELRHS
# Assay: in vitro inhibition of angiotensin converting enzyme (hippuryl-histidyl-leucine cleavage)
# Type: biochemical
# Conditions: substrate hippuryl-histidylleucine 2 mM, pH 8.3, 24 minutes at 37° C.; esters cleaved by hog liver esterase before test
# Description: The activity of the present compounds in inhibiting angiotensin converting enzyme in vitro can be determined by the following test.
# The method used is based on the method of Cushman and Cheung (Biochem. Pharmacol., 20. 1637-1648) incorporating the modifications introduced by Hayakari et al (Anal. Biochem., 84. 361-369). The substrate (hippuryl-histidylleucine, 2 mM) is incubated with angiotensin converting enzyme in the presence or absence of various concentrations of test substance in potassium phosphate buffer (pH 8.3; 100 mM) containing sodium chloride (300 mM) for 24 minutes at 37° C. (total value 500 μl). (if the test substance is an ester, it is appropriate to cleave it by means of hog liver esterase before carrying out the test). The reaction is terminated by the addition of 3 ml of potassium phosphate buffer (pH 8.3; 200 mM) at 0° C. 2,4,6-Trichloro-s-triazine (3%) in 1.5 ml of dioxan is added and the mixture is agitated until the yellow chromophore has developed fully. The samples are then centrifuged to remove any precipitate which has formed. The yellow chromophore formed by the reaction of the 2,4,6-trichloro-s-triazine with free hippuric acid is measured spectrophotometrically at 382 nm. […]
compound,measurement,value
"O=C(O)[C@@H]1CCCN2CCC[C@H](CP(=O)(O)O)C(=O)N12 [Compound A, Octahydro9(S)--phosphonomethyl10-oxo-6H--pyridazo[1,2a][1,2]diazepine1(S)-carboxylic acid]",IC50,9.6 nM
